Results reported in patent US12527779B2, “Prostaglandin E2 (PGE2) EP4 receptor antagonists” (Domain Therapeutics, priority 2019, dated 2026).
Where a name gives a salt, the structure may show the parent alone.

Columns and labels:
[1] = target: T1, human EP4 (hEP4) receptor (Homo sapiens, UniProt P35408); assay: In vitro human EP4 functional antagonist activity using BRET biosensors (cAMP EPAC biosensor, TCS2510 stimulation); format: cell-based; conditions: antagonist activity vs EC60 TCS2510, hEP4 in HEK-293 T cells
T1 construct: expressed in transfected cells; host or cells: HEK-293 T cells, transient co-transfection with polyethylenimine
T1 sequence (P35408 whole entry): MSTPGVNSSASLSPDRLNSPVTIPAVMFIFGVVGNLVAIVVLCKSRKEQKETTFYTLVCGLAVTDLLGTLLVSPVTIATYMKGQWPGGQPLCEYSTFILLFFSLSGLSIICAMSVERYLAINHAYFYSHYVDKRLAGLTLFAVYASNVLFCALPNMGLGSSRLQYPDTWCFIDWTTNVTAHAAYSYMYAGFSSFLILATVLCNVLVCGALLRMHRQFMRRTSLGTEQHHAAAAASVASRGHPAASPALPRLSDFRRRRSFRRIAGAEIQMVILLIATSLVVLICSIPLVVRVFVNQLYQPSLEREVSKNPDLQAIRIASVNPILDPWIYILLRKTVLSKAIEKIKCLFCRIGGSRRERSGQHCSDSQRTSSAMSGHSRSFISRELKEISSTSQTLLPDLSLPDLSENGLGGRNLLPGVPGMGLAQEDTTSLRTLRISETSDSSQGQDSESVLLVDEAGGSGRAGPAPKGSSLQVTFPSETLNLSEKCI
How it was run: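 Antagonism measured as inhibition of EC60 TCS2510-induced cAMP BRET signal (EPAC luciferase/GFP sensor) in transiently hEP4-expressing HEK-293T cells, following 5 min compound preincubation and 10 min luminescence recording. Plates equilibrated 1 h at 22 °C in HEPES buffer; 10 concentrations over 4.5 logs, duplicate in two independent experiments, sigmoidal variable-slope IC50.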

Pan02 tumor cells = assay: In vivo anti-tumoral activity of Example 25 in a Pan02 tumor model; set-up: species or system C57BL/6 mice
Experimental: (§1) Pan02 tumor cells were maintained in vitro as a monolayer culture in RPM11640 medium supplemented with 10% fetal bovine serum at 37° C. in an atmosphere of 5% CO2 in air. The cells were routinely subcultured twice weekly by trypsin-EDTA treatment. The cells in an exponential growth phase were harvested and counted for tumor inoculation.
Female C57BL/6 mice were inoculated subcutaneously in the right rear flank region with Pan02 tumor cells (3×10^6) in 0.1 ml of PBS for tumor development on day 0. Tumor volumes were measured thrice per week in two dimensions using a caliper, and the volume was expressed in mm^3 using the formula: “V=(L×W×W)/2”, where V is tumor volume, L is tumor length (the longest tumor dimension) and W is tumor width (the longest tumor dimension perpendicular to L). When the mean tumor size reached approximately 100 mm^3, mice were randomly allocated into groups (10 mice per group) and treated with either a control antibody (rIgG2a(2A3), 200 μg/mouse, iv, Q3D) or an anti-PD-1 antibody (RPM1-14, 200 μg/mouse, iv, Q3D), with or without the compound of Example 25 (150 mg/kg, po, 0.5% MC, BID, BID time interval: 8 h) for at least 3 weeks.
(§2) Animals were checked daily for morbidity and mortality. During routine monitoring, the animals were checked for any effects on tumor growth and treatments on behavior such as mobility, food and water consumption, body weight gain/loss (body weights were measured thrice per week), eye/hair matting and any other abnormalities. Dosing as well as tumor and body weight measurements were conducted in a Laminar Flow Cabinet. The body weights and tumor volumes were monitored by using StudyDirector™ software (version 3.1.399.19).

CT26 tumor cells = assay: In vivo anti-tumoral activity in a CT26 tumor model; set-up: species or system BALB/c mice; conditions: Example 25 150 mg/kg po BID combined with anti-PD-1 antibody 200 μg/mouse iv Q3D; 12 mice per group
Experimental: as §1, with “CT26” for “Pan02”
Female BALB/c mice were inoculated subcutaneously in the right rear flank region with CT26 tumor cells (5×10^5) in 0.1 ml of PBS for tumor development on day 0. Tumor volumes were measured thrice per week in two dimensions using a caliper, and the volume was expressed in mm^3 using the formula: “V=(L×W×W)/2”, where V is tumor volume, L is tumor length (the longest tumor dimension) and W is tumor width (the longest tumor dimension perpendicular to L). […]
as §2, with “Dosing as well as tumor and body weight measurements were conducted in a Laminar Flow Cabinet.” left out

| IC50 [1] [nM] | Compound | other results |
| --- | --- | --- |
| < 100 | CN(CCOc1ccccc1)C1(C(=O)NC2(c3ccc(C(=O)O)cc3)CC2)CCOCC1.Cl [Example 25, 4-[1-[[4-[Methyl(2-phenoxyethyl)amino]tetrahydropyran-4-carbonyl]amino]cyclopropyl]benzoic acid, hydrochloride] | Tumor Growth Inhibition TGI (%) (Pan02 tumor cells; Example 25 150 mg/kg po BID + anti-PD1 antibody 0.2 mg/animal Q3D, day 0): 0.1%; Tumor Growth Inhibition TGI (%) (Pan02 tumor cells; Example 25 150 mg/kg po BID + anti-PD1 antibody 0.2 mg/animal Q3D, day 3): 10.9%; Tumor Growth Inhibition TGI (%) (Pan02 tumor cells; Example 25 150 mg/kg po BID + anti-PD1 antibody 0.2 mg/animal Q3D, day 7): 16.9%; Tumor Growth Inhibition TGI (%) (Pan02 tumor cells; Example 25 150 mg/kg po BID + anti-PD1 antibody 0.2 mg/animal Q3D, day 10): 26.1%; Tumor Growth Inhibition TGI (%) (Pan02 tumor cells; Example 25 150 mg/kg po BID + anti-PD1 antibody 0.2 mg/animal Q3D, day 14): 51.1%; Tumor Growth Inhibition TGI (%) (Pan02 tumor cells; Example 25 150 mg/kg po BID + anti-PD1 antibody 0.2 mg/animal Q3D, day 17): 62.8%; Tumor Growth Inhibition TGI (%) (Pan02 tumor cells; Example 25 150 mg/kg po BID + anti-PD1 antibody 0.2 mg/animal Q3D, day 21, hydrochloride, 150 mg/kg): 71.0%; Tumor Growth Inhibition TGI (%) (Pan02 tumor cells; Example 25 150 mg/kg po BID + rIgG2a, day 0): 0.0%; Tumor Growth Inhibition TGI (%) (Pan02 tumor cells; Example 25 150 mg/kg po BID + rIgG2a, day 3): 15.6%; Tumor Growth Inhibition TGI (%) (Pan02 tumor cells; Example 25 150 mg/kg po BID + rIgG2a, day 7): 22.5%; Tumor Growth Inhibition TGI (%) (Pan02 tumor cells; Example 25 150 mg/kg po BID + rIgG2a, day 10): 25.1%; Tumor Growth Inhibition TGI (%) (Pan02 tumor cells; Example 25 150 mg/kg po BID + rIgG2a, day 14): 51.5%; Tumor Growth Inhibition TGI (%) (Pan02 tumor cells; Example 25 150 mg/kg po BID + rIgG2a, day 17): 61.8%; Tumor Growth Inhibition TGI (%) (Pan02 tumor cells; Example 25 150 mg/kg po BID + rIgG2a, day 21, hydrochloride, 150 mg/kg): 68.5%; cases of complete tumor regression (CT26 tumor cells): 5 cases; complete tumor regression, % of the test animals (CT26 tumor cells): 42% |
| < 100 | C[C@H](NC(=O)C1(N2CC[C@@H](Oc3cccc(Cl)c3)C2)CCCC1)c1ccc(C(=O)O)cc1 [Example 157, 4-[(1S)-1-[[1-[(3R)-3-(3-Chlorophenoxy)pyrrolidin-1-yl]cyclopentane-1-carbonyl]amino]ethyl]benzoic acid, hydrochloride] | – |
| < 1000 | C[C@H](NC(=O)C1(NCCOc2ccccc2)CCCCC1)c1ccc(C(=O)O)cc1 [Example 55, 4-[(1S)-1-[[1-(2-Phenoxyethylamino)cyclohexanecarbonyl]amino]ethyl]benzoic acid, hydrochloride] | – |
| < 100 | C[C@H](NC(=O)C1(CCCOc2ccccc2)CCOCC1)c1ccc(C(=O)O)cc1 [Example 81, 4-[(1S)-1-[[4-(3-Phenoxypropyl)tetrahydropyran-4-carbonyl]amino]ethy]benzoic Acid] | – |
| < 100 | CN(CCOc1cccc(F)c1)C1(C(=O)NC2(c3ccc(C(=O)O)cc3)CC2)CCOCC1 [Example 32, 4-[1-[[4-[2-(3-Fluorophenoxy)ethyl-methyl-amino]tetrahydropyran-4-carbonyl]amino]cyclopropyl]benzoic acid, hydrochloride] | – |
| < 100 | C[C@H](NC(=O)C1(N2CC[C@@H](Oc3cccc(Cl)c3)C2)CC1)c1ccc(C(=O)O)cc1 [Example 160, 4-[(1S)-1-[[1-[(3R)-3-(3-Chlorophenoxy)pyrrolidin-1-yl]cyclopropane-1-carbonyl]amino]ethyl]benzoic acid, hydrochloride] | – |
| < 1000 | CC(C)CCOc1cccc(C2(C(=O)N[C@@H](C)c3ccc(C(=O)O)cc3)CCOCC2)c1 [Example 104, 4-[(1S)-1-[[4-(3-Isopentyloxyphenyl)tetrahydropyran-4-carbonyl]amino]ethyl]benzoic acid] | – |
| < 100 | C[C@H](NC(=O)C1(NCCOc2ccccc2)CCOC(C)(C)C1)c1ccc(C(=O)O)cc1 (single isomer, unassigned) [Example 72, hydrochloride] | – |
| < 1000 | C[C@H](NC(=O)C1(c2cccc(OCC3CCOCC3)c2)CCOCC1)c1ccc(C(=O)O)cc1 [Example 98, 4-[(1S)-1-[[4-[3-(Tetrahydropyran-4-ylmethoxy)phenyl]tetrahydropyran-4-carbonyl]amino]ethyl]benzoic acid] | – |
| < 100 | CN(CCOc1cccc(C(F)(F)F)c1)C1(C(=O)NC2(c3ccc(C(=O)O)cc3)CC2)CCOCC1 [Example 41, 4-[1-[[4-[2-(3-Trifluoromethylphenoxy)ethyl-methyl-amino]tetrahydropyran-4-carbonyl]amino]cyclopropyl]benzoic acid, hydrochloride] | – |
| < 1000 | C[C@H](NC(=O)C1(c2ccc(OCCC3CCCCC3)cn2)CCCC1)c1ccc(C(=O)O)cc1 [Example 128, 4-[(1S)-1-[[1-[5-(2-Cyclohexylethoxy)-2-pyridyl]cyclopentanecarbonyl]amino]ethyl]benzoic acid] | – |
| < 100 | Cc1cccc(O[C@@H]2CCN(C3(C(=O)N[C@@H](C)c4ccc(C(=O)O)cc4)CCOCC3)C2)c1 [Example 150, 4-[(1S)-1-[[4-[(3R)-3-(3-Methylphenoxy)pyrrolidin-1-yl]tetrahydropyran-4-carbonyl]amino]ethyl]benzoic acid, hydrochloride] | – |
| < 100 | Cc1cccc(OCCN(C)C2(C(=O)NC3(c4ccc(C(=O)O)cc4)CC3)CCOCC2)c1 [Example 35, 4-[1-[[4-[2-(3-Methylphenoxy)ethyl-methyl-amino]tetrahydropyran-4-carbonyl]amino]cyclopropyl]benzoic acid, hydrochloride] | – |
| < 1000 | C[C@H](NC(=O)C1(N(C)CCOc2ccccc2)CCOCC1)c1ccc(C(N)=O)cc1 [Example 3, N-[(1S)-1-(4-Carbamoylphenyl)ethyl]-4-[methyl(2-phenoxyethyl)amino]tetrahydropyran-4-carboxamide] | – |
| < 1000 | C[C@H](NC(=O)C1(N2CC[C@@H](Oc3cccc(C(F)(F)F)c3)C2)CCOCC1)c1ccccc1 [Example 183, N—((S)-1-Phenylethyl)-4-((R)-3-(3-(trifluoromethyl)phenoxy)pyrrolidin-1-yl)tetrahydro-2H-pyran-4-carboxamide, hydrochloride] | – |
| < 1000 | C[C@H](NC(=O)C1(N2CCC[C@H](Oc3cccc(Cl)c3)C2)CCOCC1)c1ccc(C(=O)O)cc1 [Example 134, 4-[(1S)-1-[[4-[(3S)-3-(3-Chlorophenoxy)-1-piperidyl]tetrahydropyran-4-carbonyl]amino]ethyl]benzoic acid, hydrochloride] | – |
| < 100 | C[C@H](NC(=O)C1(c2ccc(OCCC3CCCCC3)cc2)CCCC1)c1ccc(C(=O)O)cc1 [Example 110, 4-[(1S)-1-[[1-[4-(2-Cyclohexylethoxy)phenyl]cyclopentanecarbonyl]amino]ethyl]benzoic acid] | – |
| < 100 | O=C(O)c1ccc(C2(NC(=O)C3(N4CC[C@@H](Oc5cccc(OC(F)(F)F)c5)C4)CCOCC3)CC2)cc1 [Example 147, 4-[1-[[4-[(3R)-3-[3-(Trifluoromethoxy)phenoxy]pyrrolidin-1-yl]tetrahydropyran-4-carbonyl]amino]cyclopropyl]benzoic acid, hydrochloride] | – |
| < 100 | C[C@H](NC(=O)C1(N2CC[C@@H](Oc3cccc(C(F)(F)F)c3)C2)CCOCC1)c1ccc(-c2nn[nH]n2)cc1 [Example 175, N—((S)-1-(4-(2H-Tetrazol-5-yl)phenyl)ethyl)-4-((R)-3-(3-(trifluoromethyl)phenoxy)pyrrolidin-1-yl)tetrahydro-2H-pyran-4-carboxamide, hydrochloride] | – |
| < 1000 | C[C@H](NC(=O)C1(N2CC[C@H](Oc3cccc(Cl)c3)C2)CCOCC1)c1ccc(C(=O)O)cc1 [Example 138, 4-[(1S)-1-[[4-[(3S)-3-(3-Chlorophenoxy)pyrrolidin-1-yl]tetrahydropyran-4-carbonyl]amino]ethyl]benzoic acid, hydrochloride] | – |
